Values quoted from earlier work in patent US9540416B2, “Purification process” (GLAXOSMITHKLINE BIOLOGICALS S.A., priority 2012, dated 2017).
Entries after “also recorded” stand apart in the source; their conditions may differ.

Experiments:
[1] = tested on: mice and other mammals; conditions: in mice and other mammals
[2] = relative to other Quillaja saponins

For QS-17, the adjuvant activity [1] is given as “significant adjuvant activity”.
For QS-21, the toxicity [2] is given as “low toxicity” and the adjuvant activity [1] is given as “significant adjuvant activity; also recorded: strong adjuvant activity”.
In the case of QS-18, the toxicity [2] is given as “more toxic at lower doses than other Quillaja saponins” and the adjuvant activity [1] is given as “significant adjuvant activity”.
